Test results: patent publication US12115184B2, “Amorphous calcium carbonate stabilized with polyphosphates or bisphosphonates” (AMORPHICAL LTD., priority 2015, dated 2024)

Test system: 4T1 tumor cells
Assay: Mouse bone metastasis model, intratibial 4T1 cells
Type: in vivo, mouse (BALB/c)
Details: for survival rate compared with the other groups: FIG. 8, days 13-27; for clinical signs scoring compared with the other groups: FIG. 9, days 0-27, high scoring = more clinical signs
From the text: The purpose of this study was to assess the potential therapeutic efficacy of ACC stabilized with triphosphate (ACC-TP) on the development and progression of bone metastases in mouse model via intraperitoneal (IP) injections. The model is induced by intra osseous inoculation of 4T1 tumor cells (cells originated from mice mammary gland tumor). Two ACC concentrations were examined. Their efficacy was compared to CaCl2 as a control calcium source and to a common treatment of bone metastases (Bisphosphonate—Alendronic acid).
The study was designed in order to assess the potential therapeutic efficacy of ACC-TP via intraperitoneal (IP) injections, on the development and progression of bone metastases in mouse model. The cancer model was induced by Intratibial injections of cancer cells to the Tibia bone. Intratibial injections are used when focusing on the relationships of cancer cells and bone after a tumor has metastasized, thus is considered the most appropriate for such studies.
Female mice (BALB/c, 9 weeks old) were used for the experiment. […] Initial body weight was 16-19 gr. The mice were let to acclimatize 5 days prior to the experiment.
The first control or test items administration day was defined as “Day 1”. On study day “0” all mice were anesthetized used intraperitoneal injection of Ketamine (80 mg/kg) and Xylazine (5 mg/kg). 4T1 (CRL-2539, B1) cells were injected intratibial into the Tibia in a dose level of 70×10^3 cells and dose volume of 10 μl per animal.
The control or test Items comprising calcium were administered intraperitoneally by a 25 G needle, daily (6 days a week) from Day 1 until study termination. The Alendronic acid was administered subcutaneously once a day, 3 days a week.
At study termination (Day 23 and Day 27), animals were […] by CO2 asphyxiation.
The following measurements and observations were recorded: (i) Mortality and morbidity (daily); (ii) Clinical signs observations (twice a week); (iii) Body weight measurements (once a week and at study termination); (iv) Radiographic analysis; and (v) Amount of food and water consumption (once a week).
Observations were performed for any changes in skin, fur, eyes, mucous membranes, respiratory, occurrence of secretions and excretions (e.g. diarrhea). Changes in gait, posture and response to handling, as the presence of bizarre behavior, tremors, convulsions, sleep and coma were also included.
X-ray monitoring were performed at Day “0” and Day “20” (X-ray generator Girth 8015).

[1] = after intratibial 4T1 injection on day 0

| Compound | survival rate compared with the other groups | clinical signs scoring compared with the other groups | day up to which no mice had deceased [1] | overall performance / therapeutic effect (conclusion from survival rate and clinical signs) | mice deceased as early as day [1] | survival percentages (up to day 23 of study duration) |
| --- | --- | --- | --- | --- | --- | --- |
| NCCCC(O)(P(=O)(O)O)P(=O)(O)O [Alendronic acid] | survival rate is lower | highest scoring of clinical signs | 19 days | worst performance |  |  |
| [Ca+2].[Cl-].[Cl-] [CaCl2, calcium chloride] | lower survival percentage | higher number of clinical signs |  |  | 16 days | higher than 75% |
